Measurements taken from ChEMBL document CHEMBL5226379, “Hypouricemic Actions of the Pericarp of Mangosteen in Vitro and in Vivo” (J Nat Prod, 2023).
The source made the active and inactive calls. The calls are words filed in the database; no cut-off is given here.

Key:
[1] = Acute toxicity in mouse assessed as behavioral changes at 50 g/Kg, IG measured for 14 days; settings: in vivo, po, 50000 mg/kg, 336 h, time 14 day
[2] = target: Xanthine dehydrogenase/oxidase (Homo sapiens, UniProt P47989); assay: Inhibition of XOD (unknown origin) using xanthine as substrate assessed as inhibition of uric acid generation at 100 mg/L preincubated for 15 mins followed by xanthine addition and measured by spectrophotometric analysis relative to control
Rattus norvegicus [3] = assay: Anti-hyperuricemic activity against potassium oxonate-induced hyperuricemic Sprague-Dawley rat model assessed as serum urate level at 1 mg/kg, po pre-administered via gavage twice daily for 5 times followed by potassium oxonate injection for 1 hrs prior to last dose and measured after 3 hrs; format: functional; settings: time 123 hrs
Rattus norvegicus [4] = assay: Anti-hyperuricemic activity against potassium oxonate-induced hyperuricemic Sprague-Dawley rat model assessed as serum urea nitrogen level at 1 mg/kg, po pre-administered via gavage twice daily for 5 times followed by potassium oxonate injection for 1 hrs prior to last dose and measured after 3 hrs; format: functional; settings: time 123 hrs
Rattus norvegicus [5] = assay: Anti-hyperuricemic activity against potassium oxonate-induced hyperuricemic Sprague-Dawley rat model assessed as clearance of urate measured per body surface area of 0.0311 m2 at 1 mg/kg, po pre-administered via gavage twice daily for 5 times followed by potassium oxonate injection for 1 hrs prior to last dose and measured after 3 hrs; format: functional; settings: time 123 hrs
Rattus norvegicus [6] = assay: Anti-hyperuricemic activity against potassium oxonate-induced hyperuricemic Sprague-Dawley rat model assessed as glomerular load of urate measured per body surface area of 0.0311 m2 at 1 mg/kg, po pre-administered via gavage twice daily for 5 times followed by potassium oxonate injection for 1 hrs prior to last dose and measured after 3 hrs; format: functional; settings: time 123 hrs
Rattus norvegicus [7] = assay: Anti-hyperuricemic activity against potassium oxonate-induced hyperuricemic Sprague-Dawley rat model assessed as urinary urate at 1 mg/kg, po pre-administered via gavage twice daily for 5 times followed by potassium oxonate injection for 1 hrs prior to last dose and measured after 3 hrs; format: functional; settings: time 123 hrs
Rattus norvegicus [8] = assay: Anti-hyperuricemic activity against potassium oxonate-induced hyperuricemic Sprague-Dawley rat model assessed as ratio of urinary urate to urinary creatinine at 1 mg/kg, po pre-administered via gavage twice daily for 5 times followed by potassium oxonate injection for 1 hrs prior to last dose and measured after 3 hrs; format: functional; settings: time 123 hrs
Rattus norvegicus [9] = assay: Anti-hyperuricemic activity against potassium oxonate-induced hyperuricemic Sprague-Dawley rat model assessed as serum urate level at 2 mg/kg, po pre-administered via gavage twice daily for 5 times followed by potassium oxonate injection for 1 hrs prior to last dose and measured after 3 hrs; format: functional; settings: time 123 hrs
Rattus norvegicus [10] = assay: Anti-hyperuricemic activity against potassium oxonate-induced hyperuricemic Sprague-Dawley rat model assessed as urinary urate level at 2 mg/kg, po pre-administered via gavage twice daily for 5 times followed by potassium oxonate injection for 1 hrs prior to last dose and measured after 3 hrs; format: functional; settings: time 123 hrs
Rattus norvegicus [11] = assay: Anti-hyperuricemic activity against potassium oxonate-induced hyperuricemic Sprague-Dawley rat model assessed as urine volume at 2 mg/kg, po pre-administered via gavage twice daily for 5 times followed by potassium oxonate injection for 1 hrs prior to last dose and measured after 3 hrs; format: functional; settings: time 123 hrs
Rattus norvegicus [12] = assay: Anti-hyperuricemic activity against potassium oxonate-induced hyperuricemic Sprague-Dawley rat model assessed as clearance of creatinine measured per body surface area of 0.0311 m2 at 2 mg/kg, po pre-administered via gavage twice daily for 5 times followed by potassium oxonate injection for 1 hrs prior to last dose and measured after 3 hrs; format: functional; settings: time 123 hrs
Rattus norvegicus [13] = assay: Anti-hyperuricemic activity against potassium oxonate-induced hyperuricemic Sprague-Dawley rat model assessed as fractional excretion of urate at 2 mg/kg, po pre-administered via gavage twice daily for 5 times followed by potassium oxonate injection for 1 hrs prior to last dose and measured after 3 hrs relative to control; format: functional; settings: time 123 hrs
Rattus norvegicus [14] = assay: Anti-hyperuricemic activity against potassium oxonate-induced hyperuricemic Sprague-Dawley rat model assessed as glomerular load of urate measured per body surface area of 0.0311 m2 at 2 mg/kg, po pre-administered via gavage twice daily for 5 times followed by potassium oxonate injection for 1 hrs prior to last dose and measured after 3 hrs; format: functional; settings: time 123 hrs
Rattus norvegicus [15] = assay: Anti-hyperuricemic activity against potassium oxonate-induced hyperuricemic Sprague-Dawley rat model assessed as ratio of urinary urate to urinary creatinine at 2 mg/kg, po pre-administered via gavage twice daily for 5 times followed by potassium oxonate injection for 1 hrs prior to last dose and measured after 3 hrs; format: functional; settings: time 123 hrs
Rattus norvegicus [16] = assay: Anti-hyperuricemic activity against potassium oxonate-induced hyperuricemic Sprague-Dawley rat model assessed as serum urate level at 4 mg/kg, po pre-administered via gavage twice daily for 5 times followed by potassium oxonate injection for 1 hrs prior to last dose and measured after 3 hrs; format: functional; settings: time 123 hrs
Rattus norvegicus [17] = assay: Anti-hyperuricemic activity against potassium oxonate-induced hyperuricemic Sprague-Dawley rat model assessed as urinary creatinine level at 4 mg/kg, po pre-administered via gavage twice daily for 5 times followed by potassium oxonate injection for 1 hrs prior to last dose and measured after 3 hrs; format: functional; settings: time 123 hrs
Rattus norvegicus [18] = assay: Anti-hyperuricemic activity against potassium oxonate-induced hyperuricemic Sprague-Dawley rat model assessed as urine volume at 4 mg/kg, po pre-administered via gavage twice daily for 5 times followed by potassium oxonate injection for 1 hrs prior to last dose and measured after 3 hrs; format: functional; settings: time 123 hrs
Rattus norvegicus [19] = assay: Anti-hyperuricemic activity against potassium oxonate-induced hyperuricemic Sprague-Dawley rat model assessed as clearance of creatinine measured per body surface area of 0.0311 m2 at 4 mg/kg, po pre-administered via gavage twice daily for 5 times followed by potassium oxonate injection for 1 hrs prior to last dose and measured after 3 hrs; format: functional; settings: time 123 hrs
Rattus norvegicus [20] = assay: Anti-hyperuricemic activity against potassium oxonate-induced hyperuricemic Sprague-Dawley rat model assessed as fractional excretion of urate at 4 mg/kg, po pre-administered via gavage twice daily for 5 times followed by potassium oxonate injection for 1 hrs prior to last dose and measured after 3 hrs relative to control; format: functional; settings: time 123 hrs
Rattus norvegicus [21] = assay: Anti-hyperuricemic activity against potassium oxonate-induced hyperuricemic Sprague-Dawley rat model assessed as urinary urate at 4 mg/kg, po pre-administered via gavage twice daily for 5 times followed by potassium oxonate injection for 1 hrs prior to last dose and measured after 3 hrs; format: functional; settings: time 123 hrs
Rattus norvegicus [22] = assay: Anti-hyperuricemic activity against potassium oxonate-induced hyperuricemic Sprague-Dawley rat model assessed as excretion of urate per volume of glomerular filtration measured per body surface area of 0.0311 m2 at 4 mg/kg, po pre-administered via gavage twice daily for 5 times followed by potassium oxonate injection for 1 hrs prior to last dose and measured after 3 hrs; format: functional; settings: time 123 hrs
Mus musculus [23] = assay: Hypouricemic activity in potassium oxonate-induced hyperuricemic Kunming mouse model assessed as decrease in serum uric acid level pre-administered intragastrically via gavage twice daily for 5 times followed by potassium oxonate injection for 1 hrs prior to last dose by phosphotungstic acid method; format: functional, organism-based; settings: dose 1-4 mg/kg, time 5.0 day
Mus musculus [24] = assay: Hypouricemic activity in potassium oxonate-induced hyperuricemic Kunming mouse model assessed as decrease in serum XOD level at 1 to 4 mg/kg, IG pre-administered via gavage twice daily for 5 times followed by potassium oxonate injection for 1 hrs prior to last dose; format: functional, organism-based; settings: dose 1-4 mg/kg, time 5.0 day
Mus musculus [25] = assay: Anti-hyperouricemic activity in uric acid-induced hyperuricemic Kunming mouse model assessed as decrease in serum uric acid level at 2 to 8 mg/kg, IG pre-administered via gavage twice daily for 5 times followed by uric acid injection for 30 mins prior to last dose by phosphotungstic acid method; format: functional, organism-based; settings: dose 2-8 mg/kg, time 5.0 day
Mus musculus [26] = assay: Anti-hyperouricemic activity in uric acid-induced hyperuricemic Kunming mouse model assessed as decrease in serum uric acid level at 4 mg/kg, IG pre-administered with uric acid for 30 mins followed by compound treatment and measured after 2 hrs by phosphotungstic acid method; format: functional, organism-based
Rattus norvegicus [27] = assay: Anti-hyperuricemic activity against potassium oxonate-induced hyperuricemic Sprague-Dawley rat model assessed as increase in urinary urate level at 4 mg/kg, po pre-administered via gavage twice daily for 5 times followed by potassium oxonate injection for 1 hrs prior to last dose and measured after 3 hrs relative to control; format: functional; settings: time 123 hrs

Xanthine dehydrogenase/oxidase, sequence (P47989 whole entry): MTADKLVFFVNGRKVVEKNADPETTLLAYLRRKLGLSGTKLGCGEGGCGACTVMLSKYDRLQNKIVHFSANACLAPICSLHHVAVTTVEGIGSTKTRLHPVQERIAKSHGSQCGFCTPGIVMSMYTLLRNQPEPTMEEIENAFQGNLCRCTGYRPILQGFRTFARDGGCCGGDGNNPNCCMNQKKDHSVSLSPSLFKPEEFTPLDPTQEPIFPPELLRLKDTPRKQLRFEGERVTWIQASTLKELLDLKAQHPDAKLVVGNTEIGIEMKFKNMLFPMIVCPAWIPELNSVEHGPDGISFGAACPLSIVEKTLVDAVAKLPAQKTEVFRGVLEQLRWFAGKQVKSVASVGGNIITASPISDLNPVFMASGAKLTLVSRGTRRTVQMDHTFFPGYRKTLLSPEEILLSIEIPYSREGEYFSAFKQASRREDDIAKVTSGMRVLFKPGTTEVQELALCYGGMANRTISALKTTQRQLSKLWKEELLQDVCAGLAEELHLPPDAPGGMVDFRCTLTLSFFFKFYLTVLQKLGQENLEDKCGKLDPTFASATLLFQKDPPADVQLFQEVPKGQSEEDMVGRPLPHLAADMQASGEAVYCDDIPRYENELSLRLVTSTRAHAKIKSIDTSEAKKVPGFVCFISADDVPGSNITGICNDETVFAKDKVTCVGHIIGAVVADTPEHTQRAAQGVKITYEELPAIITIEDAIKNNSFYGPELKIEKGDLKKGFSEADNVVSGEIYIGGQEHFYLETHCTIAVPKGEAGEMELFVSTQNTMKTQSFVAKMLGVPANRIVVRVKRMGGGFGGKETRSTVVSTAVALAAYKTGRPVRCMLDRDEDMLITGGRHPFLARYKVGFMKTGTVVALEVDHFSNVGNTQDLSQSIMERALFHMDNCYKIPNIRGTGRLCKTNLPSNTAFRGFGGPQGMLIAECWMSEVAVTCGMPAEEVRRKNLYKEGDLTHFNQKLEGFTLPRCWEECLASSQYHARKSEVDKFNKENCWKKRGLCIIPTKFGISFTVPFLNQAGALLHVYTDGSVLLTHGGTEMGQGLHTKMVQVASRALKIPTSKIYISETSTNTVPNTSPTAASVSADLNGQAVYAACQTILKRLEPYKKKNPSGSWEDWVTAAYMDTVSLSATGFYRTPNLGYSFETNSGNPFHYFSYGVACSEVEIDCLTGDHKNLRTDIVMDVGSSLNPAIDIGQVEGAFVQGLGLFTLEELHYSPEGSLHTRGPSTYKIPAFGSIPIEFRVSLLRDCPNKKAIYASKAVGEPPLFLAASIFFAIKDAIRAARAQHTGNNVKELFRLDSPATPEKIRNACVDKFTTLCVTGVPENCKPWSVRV

COc1c(O)cc2oc3cc(O)c(CC=C(C)C)c(O)c3c(=O)c2c1CC=C(C)C [MANGOSTIN]
Activity [1]: Non-Toxic
inhibition at 100 µg/mL [2]: 1.4%
Activity (Rattus norvegicus [3]): 220 µmol/L
Activity (Rattus norvegicus [4]): 10.7 mmol/L
Activity (Rattus norvegicus [5]): 13.6 mL/min
Activity (Rattus norvegicus [6]): 4.4 µmol/min
Activity (Rattus norvegicus [7]): 501 µmol
Ratio (Rattus norvegicus [8]): 2.7
Activity (Rattus norvegicus [9]): 236 µmol/L
Activity (Rattus norvegicus [10]): 2.6 mmol/L
Activity (Rattus norvegicus [11]): 5.6 mL
Activity (Rattus norvegicus [12]): 15.4 mL/min
Activity (Rattus norvegicus [13]): 77%
Activity (Rattus norvegicus [14]): 3.6 µmol/min
Ratio (Rattus norvegicus [15]): 3.2
Activity (Rattus norvegicus [16]): 202 µmol/L
Activity (Rattus norvegicus [17]): 0.9 mmol/L
Activity (Rattus norvegicus [18]): 6.2 mL
Activity (Rattus norvegicus [19]): 18.6 mL/min
Activity (Rattus norvegicus [20]): 85%
Activity (Rattus norvegicus [21]): 476 µmol
Activity (Rattus norvegicus [22]): 5.3 µmol/L
Activity (Mus musculus [23]): Dose-Dependent Effect
Activity (Mus musculus [24]): inactive
Activity (Mus musculus [25]): Active
Activity (Mus musculus [26]): Active
Activity (Rattus norvegicus [27]): 46%
